Measurements: ChEMBL document CHEMBL3091421, “Discovery of benzo[d]imidazo[5,1-b]thiazole as a new class of phosphodiesterase 10A inhibitors” (Bioorg Med Chem Lett, 2013)

Legend:
[1] = Drug uptake in Sprague-Dawley rat brain at 10 mg/kg, po after 30 mins; format: ADME, organism-based; set-up: dose 10 mg/kg, route oral; settings: read-out: Drug uptake
[2] = Ratio of drug level in brain to plasma in Sprague-Dawley rat at 10 mg/kg, po after 30 mins; format: ADME, organism-based; set-up: dose 10 mg/kg, route oral; settings: brain and plasma, read-out: BPR
[3] = Metabolic stability in human liver microsomes assessed as compound remaining after 60 mins; format: ADME; settings: read-out: Stability
[4] = Plasma concentration in Sprague-Dawley rat at 10 mg/kg, po after 30 mins; format: ADME, organism-based; set-up: dose 10 mg/kg, route oral
[5] = Metabolic stability in rat liver microsomes assessed as compound remaining after 60 mins; format: ADME; settings: read-out: Stability
[6] = target: cAMP and cAMP-inhibited cGMP 3',5'-cyclic phosphodiesterase 10A (Homo sapiens, UniProt Q9Y233); experiment: Inhibition of human recombinant PDE10A using [3H]-cAMP/[3H]-cGMP as substrate after 30 mins by radiometric assay
[7] = target: Dual 3',5'-cyclic-AMP and -GMP phosphodiesterase 11A (Homo sapiens) (UniProt Q9HCR9); experiment: Inhibition of PDE11A (unknown origin) using [3H]-cAMP as substrate at 10 uM after 30 mins by radiometric assay
[8] = target: cGMP-dependent 3',5'-cyclic phosphodiesterase (Homo sapiens) (UniProt O00408); experiment: Inhibition of PDE2A (unknown origin) using cAMP as substrate at 10 uM after 30 mins by HTRF method
[9] = target: cGMP-specific 3',5'-cyclic phosphodiesterase (Homo sapiens) (UniProt O76074); experiment: Inhibition of PDE5A (unknown origin) using [3H]-cGMP as substrate at 10 uM after 30 mins by radiometric assay
Homo sapiens [10] = species on record: Homo sapiens; experiment: Selectivity ratio of IC50 for PDE11A (unknown origin) to IC50 for human recombinant PDE10A
[11] = target: 3',5'-cyclic-AMP phosphodiesterase 4D (Homo sapiens) (UniProt Q08499); experiment: Inhibition of PDE4D (unknown origin) using cAMP as substrate at 10 uM after 30 mins
[12] = target: High affinity 3',5'-cyclic-AMP phosphodiesterase 7A (Homo sapiens) (UniProt Q13946); experiment: Inhibition of PDE7A1 (unknown origin) using [3H]-cAMP as substrate at 10 uM after 30 mins by radiometric assay
Homo sapiens [13] = species on record: Homo sapiens; experiment: Selectivity ratio of IC50 for PDE4D (unknown origin) to IC50 for human recombinant PDE10A
[14] = target: High affinity cAMP-specific and IBMX-insensitive 3',5'-cyclic phosphodiesterase 8A (Homo sapiens) (UniProt O60658); experiment: Inhibition of PDE8A (unknown origin) using [3H]-cAMP as substrate at 10 uM after 30 mins by radiometric assay
Homo sapiens [15] = species on record: Homo sapiens; experiment: Selectivity ratio of IC50 for PDE1A (unknown origin) to IC50 for human recombinant PDE10A
[16] = target: High affinity cGMP-specific 3',5'-cyclic phosphodiesterase 9A (Homo sapiens) (UniProt O76083); experiment: Inhibition of PDE9A2 (unknown origin) using [3H]-cGMP as substrate at 10 uM after 30 mins by radiometric assay
Homo sapiens [17] = species on record: Homo sapiens; experiment: Selectivity ratio of IC50 for PDE5A (unknown origin) to IC50 for human recombinant PDE10A
[18] = target: cGMP-inhibited 3',5'-cyclic phosphodiesterase 3A (Homo sapiens) (UniProt Q14432); experiment: Inhibition of PDE3A (unknown origin) using cAMP as substrate at 10 uM after 30 mins by HTRF method
Homo sapiens [19] = species on record: Homo sapiens; experiment: Selectivity ratio of IC50 for PDE7A1 (unknown origin) to IC50 for human recombinant PDE10A
Homo sapiens [20] = species on record: Homo sapiens; experiment: Selectivity ratio of IC50 for PDE9A2 (unknown origin) to IC50 for human recombinant PDE10A
Homo sapiens [21] = species on record: Homo sapiens; experiment: Selectivity ratio of IC50 for PDE3A (unknown origin) to IC50 for human recombinant PDE10A
Homo sapiens [22] = species on record: Homo sapiens; experiment: Selectivity ratio of IC50 for PDE2A (unknown origin) to IC50 for human recombinant PDE10A
Homo sapiens [23] = species on record: Homo sapiens; experiment: Selectivity ratio of IC50 for PDE8A (unknown origin) to IC50 for human recombinant PDE10A
Rattus norvegicus = experiment: Antipsychotic activity in Sprague-Dawley rat psychosis model assessed as inhibition of MK-801-induced hyperlocomotion at 1 mg/kg, ip administered 5 mins prior to MK-801-challenge measured after 15 mins up to 1 hr; format: functional; settings: route intraperitoneal

Sequence of cAMP and cAMP-inhibited cGMP 3',5'-cyclic phosphodiesterase 10A (Q9Y233 whole entry): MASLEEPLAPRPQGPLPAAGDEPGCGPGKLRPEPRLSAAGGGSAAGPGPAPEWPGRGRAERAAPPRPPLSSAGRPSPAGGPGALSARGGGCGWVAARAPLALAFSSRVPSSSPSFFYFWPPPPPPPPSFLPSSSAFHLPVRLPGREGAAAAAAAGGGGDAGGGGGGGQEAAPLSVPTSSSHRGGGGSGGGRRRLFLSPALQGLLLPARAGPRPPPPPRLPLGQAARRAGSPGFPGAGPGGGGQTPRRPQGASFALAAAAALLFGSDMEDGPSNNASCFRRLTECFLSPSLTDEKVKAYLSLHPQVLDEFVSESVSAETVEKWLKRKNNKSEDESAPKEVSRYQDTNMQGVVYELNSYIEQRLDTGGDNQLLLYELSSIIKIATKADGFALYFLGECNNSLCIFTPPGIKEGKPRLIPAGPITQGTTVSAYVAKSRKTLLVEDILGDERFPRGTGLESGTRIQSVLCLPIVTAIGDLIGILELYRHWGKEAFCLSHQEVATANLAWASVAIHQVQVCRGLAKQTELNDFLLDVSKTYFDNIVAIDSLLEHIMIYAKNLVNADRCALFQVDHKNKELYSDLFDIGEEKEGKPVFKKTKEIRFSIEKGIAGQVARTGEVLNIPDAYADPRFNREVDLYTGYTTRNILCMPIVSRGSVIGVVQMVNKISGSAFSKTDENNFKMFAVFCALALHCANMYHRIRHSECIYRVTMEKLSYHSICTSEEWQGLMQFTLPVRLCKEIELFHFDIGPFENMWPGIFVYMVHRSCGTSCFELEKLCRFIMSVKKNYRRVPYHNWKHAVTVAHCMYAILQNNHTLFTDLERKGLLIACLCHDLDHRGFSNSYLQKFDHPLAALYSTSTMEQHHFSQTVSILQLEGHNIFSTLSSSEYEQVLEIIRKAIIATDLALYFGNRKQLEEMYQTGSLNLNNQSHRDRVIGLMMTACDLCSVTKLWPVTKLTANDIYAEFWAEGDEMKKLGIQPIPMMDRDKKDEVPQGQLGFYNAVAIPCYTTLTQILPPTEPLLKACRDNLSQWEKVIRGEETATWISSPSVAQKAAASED
Sequence of High affinity 3',5'-cyclic-AMP phosphodiesterase 7A (Homo sapiens) (Q13946 whole entry): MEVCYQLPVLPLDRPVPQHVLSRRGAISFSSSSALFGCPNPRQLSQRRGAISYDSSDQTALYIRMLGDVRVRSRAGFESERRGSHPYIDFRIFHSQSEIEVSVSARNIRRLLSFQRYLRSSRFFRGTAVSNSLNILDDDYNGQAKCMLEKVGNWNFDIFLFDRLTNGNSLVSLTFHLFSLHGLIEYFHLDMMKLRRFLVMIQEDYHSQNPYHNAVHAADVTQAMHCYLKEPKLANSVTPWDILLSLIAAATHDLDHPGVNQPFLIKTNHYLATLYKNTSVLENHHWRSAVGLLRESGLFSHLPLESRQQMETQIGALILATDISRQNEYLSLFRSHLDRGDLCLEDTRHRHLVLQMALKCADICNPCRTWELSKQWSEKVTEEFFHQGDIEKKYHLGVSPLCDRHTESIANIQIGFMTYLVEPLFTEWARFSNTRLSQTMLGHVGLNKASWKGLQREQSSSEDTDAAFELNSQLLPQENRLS
Sequence of High affinity cAMP-specific and IBMX-insensitive 3',5'-cyclic phosphodiesterase 8A (Homo sapiens) (O60658 whole entry): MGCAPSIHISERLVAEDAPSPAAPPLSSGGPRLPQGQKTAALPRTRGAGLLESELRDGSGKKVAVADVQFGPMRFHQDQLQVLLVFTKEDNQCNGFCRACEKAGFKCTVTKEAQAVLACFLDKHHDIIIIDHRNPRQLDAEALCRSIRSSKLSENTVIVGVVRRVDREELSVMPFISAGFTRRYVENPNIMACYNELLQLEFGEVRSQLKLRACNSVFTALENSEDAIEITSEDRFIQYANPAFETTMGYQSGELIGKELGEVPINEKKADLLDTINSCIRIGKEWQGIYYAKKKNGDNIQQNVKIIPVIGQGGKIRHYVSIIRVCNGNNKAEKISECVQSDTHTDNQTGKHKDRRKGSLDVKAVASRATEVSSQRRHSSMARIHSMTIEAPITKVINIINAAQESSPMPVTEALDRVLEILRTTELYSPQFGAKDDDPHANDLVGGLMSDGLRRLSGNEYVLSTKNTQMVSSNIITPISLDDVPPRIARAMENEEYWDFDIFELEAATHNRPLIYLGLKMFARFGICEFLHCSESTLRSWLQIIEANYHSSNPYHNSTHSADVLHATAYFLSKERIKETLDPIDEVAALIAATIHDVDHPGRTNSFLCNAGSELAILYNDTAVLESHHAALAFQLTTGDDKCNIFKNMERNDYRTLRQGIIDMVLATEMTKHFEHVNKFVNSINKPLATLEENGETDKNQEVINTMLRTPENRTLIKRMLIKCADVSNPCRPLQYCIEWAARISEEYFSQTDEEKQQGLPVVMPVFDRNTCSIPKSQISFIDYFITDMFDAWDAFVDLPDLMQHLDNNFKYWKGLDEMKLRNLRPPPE
Sequence of cGMP-dependent 3',5'-cyclic phosphodiesterase (Homo sapiens) (O00408 whole entry): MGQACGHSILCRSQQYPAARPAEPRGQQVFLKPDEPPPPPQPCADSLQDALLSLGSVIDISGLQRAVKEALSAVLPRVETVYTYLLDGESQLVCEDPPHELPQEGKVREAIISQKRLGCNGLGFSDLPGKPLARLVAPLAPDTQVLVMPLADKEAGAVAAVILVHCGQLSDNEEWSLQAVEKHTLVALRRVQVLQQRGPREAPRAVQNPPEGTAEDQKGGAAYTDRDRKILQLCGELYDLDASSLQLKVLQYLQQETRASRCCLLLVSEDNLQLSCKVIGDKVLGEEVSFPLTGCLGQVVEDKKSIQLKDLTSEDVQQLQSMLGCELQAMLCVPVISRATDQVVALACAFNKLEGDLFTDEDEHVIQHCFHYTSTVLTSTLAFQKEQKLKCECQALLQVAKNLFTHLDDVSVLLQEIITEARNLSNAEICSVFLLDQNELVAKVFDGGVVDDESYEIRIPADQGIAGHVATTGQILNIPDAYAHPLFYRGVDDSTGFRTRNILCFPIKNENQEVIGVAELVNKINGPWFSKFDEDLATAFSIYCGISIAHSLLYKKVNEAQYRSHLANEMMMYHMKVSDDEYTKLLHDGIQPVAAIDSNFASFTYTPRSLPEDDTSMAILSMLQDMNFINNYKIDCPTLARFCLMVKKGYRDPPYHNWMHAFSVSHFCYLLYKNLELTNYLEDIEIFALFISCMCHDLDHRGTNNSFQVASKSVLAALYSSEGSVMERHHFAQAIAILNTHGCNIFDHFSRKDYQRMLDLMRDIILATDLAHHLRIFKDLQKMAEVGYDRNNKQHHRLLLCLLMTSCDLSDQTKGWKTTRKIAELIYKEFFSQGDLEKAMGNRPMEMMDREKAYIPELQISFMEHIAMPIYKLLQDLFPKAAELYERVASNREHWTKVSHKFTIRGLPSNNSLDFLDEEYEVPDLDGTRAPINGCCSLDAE
Sequence of High affinity cGMP-specific 3',5'-cyclic phosphodiesterase 9A (Homo sapiens) (O76083 whole entry): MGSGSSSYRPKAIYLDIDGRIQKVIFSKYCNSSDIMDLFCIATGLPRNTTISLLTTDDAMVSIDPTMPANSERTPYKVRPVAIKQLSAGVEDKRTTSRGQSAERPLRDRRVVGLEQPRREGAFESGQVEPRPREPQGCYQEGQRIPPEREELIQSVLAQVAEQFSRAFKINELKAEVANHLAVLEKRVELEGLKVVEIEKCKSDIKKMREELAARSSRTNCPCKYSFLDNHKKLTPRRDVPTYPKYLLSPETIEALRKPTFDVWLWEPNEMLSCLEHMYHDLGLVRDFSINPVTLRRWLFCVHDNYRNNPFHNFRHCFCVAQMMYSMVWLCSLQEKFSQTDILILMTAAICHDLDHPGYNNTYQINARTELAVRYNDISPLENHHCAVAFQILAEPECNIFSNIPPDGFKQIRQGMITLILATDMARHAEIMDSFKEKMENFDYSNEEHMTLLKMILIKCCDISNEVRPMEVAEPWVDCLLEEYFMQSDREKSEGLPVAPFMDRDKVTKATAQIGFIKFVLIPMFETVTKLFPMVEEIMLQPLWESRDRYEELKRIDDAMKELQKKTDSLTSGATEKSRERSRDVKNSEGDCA
Sequence of 3',5'-cyclic-AMP phosphodiesterase 4D (Homo sapiens) (Q08499 whole entry): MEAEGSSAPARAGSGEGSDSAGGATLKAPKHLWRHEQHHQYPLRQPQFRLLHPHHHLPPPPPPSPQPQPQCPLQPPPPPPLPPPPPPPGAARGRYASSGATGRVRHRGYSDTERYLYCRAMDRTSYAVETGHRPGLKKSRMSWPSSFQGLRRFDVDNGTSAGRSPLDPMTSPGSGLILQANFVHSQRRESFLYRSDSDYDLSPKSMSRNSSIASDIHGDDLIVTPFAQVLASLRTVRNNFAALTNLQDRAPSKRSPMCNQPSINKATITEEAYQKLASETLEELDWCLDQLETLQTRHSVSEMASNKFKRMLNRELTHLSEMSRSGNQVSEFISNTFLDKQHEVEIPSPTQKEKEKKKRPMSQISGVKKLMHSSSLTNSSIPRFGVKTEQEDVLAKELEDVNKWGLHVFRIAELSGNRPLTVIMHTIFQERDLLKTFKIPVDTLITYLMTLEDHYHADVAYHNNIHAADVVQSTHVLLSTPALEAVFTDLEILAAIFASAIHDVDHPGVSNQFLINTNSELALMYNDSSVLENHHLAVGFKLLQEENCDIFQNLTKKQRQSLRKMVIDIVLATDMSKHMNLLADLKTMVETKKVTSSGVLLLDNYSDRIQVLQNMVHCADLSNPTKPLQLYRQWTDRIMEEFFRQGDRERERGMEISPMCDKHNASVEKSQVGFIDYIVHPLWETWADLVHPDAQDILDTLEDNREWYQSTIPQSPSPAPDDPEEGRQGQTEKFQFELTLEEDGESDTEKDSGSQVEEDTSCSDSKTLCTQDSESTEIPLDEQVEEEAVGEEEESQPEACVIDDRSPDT

| SMILES | concentration at 0.5 h [1] | Kp at 0.5 h [2] | remaining at 1 h [3] | concentration at 0.5 h [4] | remaining at 1 h [5] | IC50 [6] | other results |
| --- | --- | --- | --- | --- | --- | --- | --- |
| c1ccc2nc(COc3ccc4c(c3)sc3nnc(-c5ccncc5)n34)ccc2c1 | – | – | – | – | – | 666 nM | – |
| CC(=O)N1CC(c2nc(C)c3sc4cc(OCc5ccc6ccccc6n5)ccc4n23)C1 | 62 ng/g | 0.45 | 50% | 137 ng/mL | 42% | 6.73 nM | – |
| Cc1nc(-c2ccncc2)n2c1sc1cc(OCc3ccc4ccccc4n3)ccc12 | – | – | 5% | – | 22% | 4.85 nM | inhibition [7]: 21.4%; inhibition [8]: 67.2%; inhibition [9]: 34%; Ratio IC50 (Homo sapiens [10]): > 500; inhibition [11]: 27.1%; inhibition [12]: 42.3%; Ratio IC50 (Homo sapiens [13]): > 500; inhibition [14]: 0%; Ratio IC50 (Homo sapiens [15]): > 500; inhibition [16]: 22.8%; Ratio IC50 (Homo sapiens [17]): > 500; inhibition [18]: 26%; Ratio IC50 (Homo sapiens [19]): > 500; Ratio IC50 (Homo sapiens [20]): > 500; Ratio IC50 (Homo sapiens [21]): > 500; Ratio IC50 (Homo sapiens [22]): > 500; Ratio IC50 (Homo sapiens [23]): > 500 |
| Cc1nc2n(c(=O)c1CCN1CCC(c3noc4cc(F)ccc34)CC1)CCCC2 [RISPERIDONE] | – | – | – | – | – | – | inhibition in vivo at 1 mg/kg (Rattus norvegicus): 72% |
| Cc1nc(C)c(-c2nc(C)c3sc4cc(OCc5ccc6ccccc6n5)ccc4n23)s1 | – | – | 3% | – | 20% | 0.9 nM | – |
| Cc1nc([C@]23COC[C@H]2C3)n2c1sc1cc(OCc3ccc4ccccc4n3)ccc12 | 732 ng/g | 1.86 | 44% | 394 ng/mL | 70% | 5.12 nM | – |
| Cc1nc2sc3cc(OCc4ccc5ccccc5n4)ccc3n2c1-c1ccncc1 | – | – | – | – | – | 351 nM | – |

Now from value to compound, other results behind:

| concentration at 0.5 h [1] | Kp at 0.5 h [2] | remaining at 1 h [3] | concentration at 0.5 h [4] | remaining at 1 h [5] | IC50 [6] | SMILES | other results |
| --- | --- | --- | --- | --- | --- | --- | --- |
| 430 ng/g | 2.62 | 37% | 164 ng/mL | 60% | 6.88 nM | Cc1nc([C@@]23COC[C@@H]2C3)n2c1sc1cc(OCc3ccc4ccccc4n3)ccc12 | – |
| 165 ng/g | 0.42 | 76% | 396 ng/mL | 48% | 8.96 nM | CC(=O)N1CCC(c2nc(C)c3sc4cc(OCc5ccc6ccccc6n5)ccc4n23)CC1 | – |
| – | – | 45% | – | 37% | 18.5 nM | Cc1nc(C2CCOC2)n2c1sc1cc(OCc3ccc4ccccc4n3)ccc12 (configuration not stated) | – |
| – | – | 30% | – | 3% | 13.9 nM | Cc1nc(-c2ccnnc2)n2c1sc1cc(OCc3ccc4ccccc4n3)ccc12 | – |
| – | – | 100% | – | 80% | 157 nM | Cc1nc(C2CNC2)n2c1sc1cc(OCc3ccc4ccccc4n3)ccc12 | – |
| – | – | 5% | – | 19% | 8.73 nM | Cc1cc(-c2nc(C)c3sc4cc(OCc5ccc6ccccc6n5)ccc4n23)ccn1 | – |
